In test [1] the test system is SV40 T-antigen-transformed human kidney mesangial cells. Description: Tritiated thymidine uptake of transformed mesangial cells with rhIL-1 or TNFα. The test is classed as cell-based. The protocol:
SV40 T-antigen-transformed human kidney mesangial cells were cultured under standard conditions with rhIL-1 or with TNFα with and without pentoxifylline (PTX). Transformed mesangial cells grow independently of added growth factors, but IL-1 and TNFα are the normal proliferative signals for mesangial cells. As was shown in Example 1, when IL-1 is added to kidney mesangial cells, within 30 seconds LPAAT and PAPH are activated; the effect of both of these enzymes is inhibited by pentoxifylline at 1 mM. In this experiment, the growth of the treated cells was measured using tritiated thymidine uptake.

Test [2] has as its system HLA-DR, CD71, CD25 and CD69 on MLR-stimulated lymphocytes. As to conditions: Singer et al.; cited from earlier work.
In test [3] the test system is human leukemic cell line (Mo7e). Briefly: GM-CSF-stimulated colony formation in semisolid medium. The test is classed as cell-based. The settings on record: rhGM-CSF; colonies counted after 10 days; FIG. 14. The protocol: The human leukemic cell line (Mo7e) is dependent on added granulocyte-macrophage colony-stimulating factor (GM-CSF) for growth. Mo7e cells were cultured in semisolid medium with and without pentoxifylline (PTX) and rhGM-CSF. Colonies were counted 10 days after culture initiation under an inverted microscope. […] PTX thus prevents the up-regulation of activation-associated genes which inhibit proliferation.

Test [4] relates to TNFα transcripts in U937 cells. Description: Northern blot of TNFα transcripts after LPS induction. Type of test: cell-based. As to conditions: 1 mM PTX; LPS three hours; FIG. 15.
Test [5] relates to IL-8 encoding mRNA in U937 and THP1 monocytic cell lines. Description: Northern blot of IL-8 mRNA after lipopolysaccharide or GM-CSF. Type of test: cell-based. As to conditions: induced by lipopolysaccharide or GM-CSF. The protocol:
The murine fibrosarcoma cell line, L929, was also tested as an indicator for assays of TNF cytotoxicity. Cell growth was assayed by crystal violet staining using optical density as a measure of growth. […] Finally, two monocytic cell lines, U937 and THP1, were used to test the effect of pentoxifylline on the […] of the cytokine IL-8. The cell lines in culture were induced to upregulate IL-8 production by lipopolysaccharide or GM-CSF.

For test [6], the system named is Steel factor transcripts in marrow stromal cell lines. Description: Northern blot of Steel factor transcripts. Type of test: cell-based. As to conditions: three-hour incubation; passaged or cloned (CDCL) marrow stromal cell lines; FIGS. 17 and 18.
Test [7] concerns IL-6 transcripts in bone marrow stromal cells. Briefly: Northern blot of IL-6 transcripts. The settings on record: three-hour exposure, increasing concentrations; FIG. 16. Type of test: cell-based.
The next test relates to TNFα. As to conditions: Singer et al.; cited from earlier work.
In the next test the test system is CD3-positive lymphocytes. Briefly: Proliferation of anti-CD3-stimulated CD2-positive cells (thymidine uptake). Type of test: cell-based. As to conditions: CD2-positive T-cells, adsorbed monoclonal antibody 64.1, harvested after 5 days; IL-1 or TNF failed to reverse; FIG. 21. The protocol: In these experiments, freshly isolated, CD2-positive cells were stimulated by a solid-phase monoclonal antibody to acquire a CD3 phenotype, and then PTX was added. […] The block in proliferation could not be overcome by addition of either tumor necrosis factor (FIGS. 20 and 21) or IL-1 (FIG. 21). […] The cytokines and PTX were added at culture inception and the cells were harvested after 5 days.

A further test concerns T cell proliferation. As to conditions: Singer et al., cited from earlier work.
Test [8] has as its system phosphatidic acid phosphohydrolase (PAPH). Briefly: Invention assay: HPLC of lipids from IL-1-stimulated mesangial cells, PAPH. The test is classed as cell-based, human. As to conditions: 0.5 mM; subsequent determinations. The protocol:
(§1) This example also illustrates the method of the invention.
(§2) Human glomerular mesangial cells were incubated with IL-1 for various time periods of 5-60 seconds and the cells were fixed in ice-cold methanol, and the lipids extracted using chloroform:methanol 2:1 (v/v). It is very important that the fixing/extraction process be conducted quickly so that the decomposition of unstable intermediates is halted.
(§3) The extracts were subjected to HPLC on a Rainin mu-Porasil column with a 3:4 hexane:propanol organic carrier and a 1-10% water gradient during the first 10 minutes of separation. The relative concentration of each lipid species is determined using absorption at 206 nm (A206), which follows unsaturated acyl content of lipid species. […] The absolute mass of each lipid species is determined by lisolation of the lipid using a fraction collector, repurification on the HPLC column. Determination of phospholipid phosphorus is as nmoles/mg cellular protein. Protein concentration is determined using the Bradford technique.

Test [9] has as its system NIH3T3 murine fibroblast cells transformed with a mutated K-ras. Description: Growth and soft agar colonies of K-ras transformed NIH3T3 cells in vitro. Type of test: cell-based. As to conditions: concentrations at or greater than 0.5 mM. The protocol: Additionally, NIH3T3 murine fibroblast cells transformed with a mutated K-ras (codon 12 Gly-Val) were tested in vitro and in nude mice.

The test system of test [10] is TNF, IL-2 and IL-2 receptor transcripts in CD3 positive lymphocytes. Description: Northern blots of CD3 positive lymphocytes in a mixed lymphocyte reaction. Type of test: cell-based.
Test [11] relates to PA and DAG levels in human glomerular mesangial cells. Description: Invention assay: HPLC of lipids from IL-1-stimulated mesangial cells. The test is classed as cell-based. The protocol: The compounds of Formula I are shown to modulate the effects of primary stimuli which elevate levels of the relevant subspecies of PA and DAG using the assay system of the invention. In general for the assay, the cells to be tested are first incubated with the primary stimulating agent for various time periods and fixed in ice-cold methanol. The lipids are extracted using, for example, chloroform:methanol 2:1 (v/v), and the extracts are then subjected to HPLC as described by Bursten and Harris, Biochemistry (1991)------. In this method, a Rainin mu-Porasil column is used with a 3:4 hexane:propanol organic carrier and a 1-10% water gradient during the first 10 minutes of separation. Detection of the peaks in the elution pattern is by absorption in the range of ultraviolet which detects isolated double bonds. Thus, the relevant peaks of unsaturated PA and DAG are shown in the elution pattern. It is important to note that the assay method permits discrimination between various forms of PA and DAG so that those relevant to the pathway affected by the compounds of Formula I can be measured directly. Confirmation of the nature of the acyl substituents of these components is accomplished using fast-atom bombardment mass spectroscopy. Thus, the relevant unsaturated (non-arachidonic) PA and DAG subspecies may be detected. The time periods employed are 5-60 seconds after stimulation with the primary stimulus, such as a cytokine. This technique permits assessment of the levels of various lipid components as a function of time.
To test the effect of the compounds of the invention, the candidate compound is included in the initial incubation at various concentrations. Fixing, extraction and HPLC are conducted as above. The effect of the candidate compound is then reflected in a lowering of the relevant PA and DAG levels as compared to the cells without candidate in the control as illustrated hereinbelow.
as §2
The extracts were subjected to HPLC on a Rainin mu-Porasil column with a 3:4 hexane:propanol organic carrier and a 1-10% water gradient during the first 10 minutes of separation. The relative concentration of each lipid species is determined using absorption at 206 nm (A206), which follows unsaturated acyl content of lipid species. […] The absolute mass of each lipid species is determined by lisolation of the lipid using a fraction collector, repurification on the HPLC column. […] Protein concentration is determined using the Bradford technique. […]

Test [12] deals with lyso-PA acyl transferase (LPAAT). Briefly: Invention assay: HPLC of lipids from IL-1-stimulated mesangial cells, LPAAT. The test is classed as cell-based, human. The settings on record: compared with 0.5 mM; subsequent determinations. The protocol:
as §1, §2, §3

Test [13] deals with NIH3T3 cell line (D5C3) transformed with temperature-sensitive v-abl mutant gene. Description: Blocking transformed phenotype of D5C3 cells. The test is classed as cell-based, murine. As to conditions: 1 mM pentoxifylline; 33° C., 5 days.
Description: An NIH3T3 cell line ([MUT]) provides target cells which were transformed by an activated oncogene. The cells were transformed with a temperature-sensitive v-abl mutant gene. This mutant gene encodes a temperature-sensitive v-abl protein that produces a non-oncogenic product at a non-permissive temperature due to a lack of tyrosine phosphorylation. The cells were incubated at the permissive temperature (33° C.) for 5 days after passage with and without pentoxifylline (1 mM).

On to `CC(=O)CCCCn1c(=O)c2c(ncn2C)n(C)c1=O` [Pentoxifylline], for which the “proliferative effect of TNF (thymidine uptake)” value in test [1] (TNFα, FIG. 13B) was “enhances the proliferative effect of TNF”. The “growth stimulated by IL-1 (thymidine uptake)” value in test [1] (rhIL-1, FIG. 13A) is reported as “arrested growth”. Also, in test [2], the “expression of cell surface antigens HLA-DR, CD71, CD25, CD69” value is “decreased expression”. In test [3], the “GM-CSF-stimulated growth of colonies” value is “enhanced GM-CSF-stimulated growth of colonies”. Further, in test [4], the “TNF RNA in response to LPS stimulation” value is on record as “undetectable level”. Besides, the “synthesis of IL-8 (mRNA)” value in [5] is “did not inhibit, and indeed may upregulate”. Moreover, the “levels of Steel factor transcripts” value in test [6] is reported as “increases”. The “production of IL-6 transcripts” value in [7] was “increased production of IL-6 transcripts”. The “effect on secretion of TNFα versus TNF transcription” value in the test with TNFα is recorded as “greater effect on secretion of TNFα”. For the same compound, the thymidine uptake result with CD3-positive lymphocytes is given as “diminished by PTX in an concentration-dependent manner”. In addition, the “proliferative response in a mixed lymphocyte culture” value in the test on T cell proliferation (PTX added after triggering lymphocytes) is recorded as “still effective in blocking a proliferative response”. The “proliferation of lymphocytes induced by anti-CD3” value with T cell proliferation (exogenous recombinant TNF or IL-1 did not reverse) was “suppressed proliferation”. In addition, the “inhibition of PAPH” value in [8] was “inhibits PAPH”. Further, in [9], the “anchorage-independent growth in soft agar” value is “suppression of anchorage-independent growth” and the growth in vitro result is “inhibition of growth”. Besides, the TNF transcripts entry in [10] (FIG. 19A) is “suppression”. Further, the IL-2 receptor transcripts entry in test [10] (FIG. 19C) is recorded as “suppression”. Further, in test [11] (100 μM pentoxifylline, 10^-11 M IL-1, 15- and 60-second points), the “cyclical formation of PA and conversion of PA to DAG (HPLC)” value is on record as “no change”. Besides, the “conversion of PA to DAG (HPLC)” value in test [11] (500 μM pentoxifylline, IL-1, 15 second time point) was “slight attenuation”. The “elevation of PA and DAG by IL-1 (HPLC)” value in [11] (1 mM PTX, all time points (15-60 seconds)) was “abolishes the elevation of PA and DAG”. In addition, in test [12], the “inhibitory effect on LPAAT” value is on record as “evident only at higher concentrations”. For the same compound, the appearance of cells result in test [13] is listed as “predominantly non-transformed, fibroblastic appearance”.

These data come from patent US5585380A, “Modulation of cellular response to external stimuli” (priority 1995, dated 1996).
